According to the Kinase Knowledgebase extract (Sharma et al. 2016):

These compounds were tested against PIK3CA (human) (UniProt P42336) (assay: Assessment of PIK3CA Kinase Activity).
Chain of PIK3CA (human) (P42336 whole entry, looked up): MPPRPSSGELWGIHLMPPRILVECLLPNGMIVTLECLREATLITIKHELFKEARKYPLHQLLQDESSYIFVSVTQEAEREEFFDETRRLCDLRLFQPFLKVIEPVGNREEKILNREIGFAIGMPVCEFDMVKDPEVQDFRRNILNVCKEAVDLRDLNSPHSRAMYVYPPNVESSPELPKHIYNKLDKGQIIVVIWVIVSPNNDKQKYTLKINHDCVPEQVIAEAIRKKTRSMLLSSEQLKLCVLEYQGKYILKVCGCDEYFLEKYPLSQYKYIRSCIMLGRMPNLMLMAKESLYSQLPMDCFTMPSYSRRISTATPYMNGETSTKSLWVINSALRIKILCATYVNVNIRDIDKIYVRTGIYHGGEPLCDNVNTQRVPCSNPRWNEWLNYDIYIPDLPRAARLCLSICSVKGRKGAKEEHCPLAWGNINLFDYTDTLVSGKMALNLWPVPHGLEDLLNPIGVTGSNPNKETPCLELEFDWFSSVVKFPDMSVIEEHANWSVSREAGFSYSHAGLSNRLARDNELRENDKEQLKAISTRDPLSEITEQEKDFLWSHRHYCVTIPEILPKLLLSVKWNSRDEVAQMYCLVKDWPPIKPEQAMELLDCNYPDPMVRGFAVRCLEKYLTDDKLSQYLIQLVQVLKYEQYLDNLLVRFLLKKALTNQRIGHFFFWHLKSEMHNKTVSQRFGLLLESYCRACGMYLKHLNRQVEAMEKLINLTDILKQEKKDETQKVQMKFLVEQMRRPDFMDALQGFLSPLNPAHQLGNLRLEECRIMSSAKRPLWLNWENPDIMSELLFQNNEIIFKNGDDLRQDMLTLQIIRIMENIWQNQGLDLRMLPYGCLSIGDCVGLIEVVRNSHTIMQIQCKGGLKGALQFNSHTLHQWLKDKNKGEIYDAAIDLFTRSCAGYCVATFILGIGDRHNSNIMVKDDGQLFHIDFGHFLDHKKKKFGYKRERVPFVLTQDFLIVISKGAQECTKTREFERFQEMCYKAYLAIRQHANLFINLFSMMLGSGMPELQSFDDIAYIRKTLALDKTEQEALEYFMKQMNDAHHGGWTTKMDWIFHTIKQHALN

SMILES	IC50 [nM]
CN(C)C(=O)c1ccc(NC(=O)Nc2ccc(-c3nc(N4CCOCC4)c4ncc(-c5cncnc5)cc4n3)c(F)c2)cc1	< 50
Cc1nn(C)c(C)c1-c1ccc2c(N3CCOCC3)nc(-c3ccc(NC(=O)Nc4ccc(C(=O)N(C)C)cc4)cc3F)nc2c1	< 50
CN1CCN(C(=O)c2ccc(NC(=O)Nc3ccc(-c4nc(N5CCOCC5)c5ncc(-c6cncnc6)cc5n4)cc3)cc2)CC1	< 50
CN(C)C(=O)c1ccc(NC(=O)Nc2ccc(-c3nc(N4CCOCC4)c4cccc(-c5ccc(F)nc5)c4n3)cc2)cc1	50 to 200
CN1CCN(C(=O)c2ccc(NC(=O)Nc3ccc(-c4nc(N5CCOCC5)c5ncc(-c6cnn(C)c6)cc5n4)cc3)cc2)CC1	< 50
CN(C)C(=O)c1ccc(NC(=O)Nc2ccc(-c3nc(N4CCOCC4)c4cc(F)c(-c5cncnc5)cc4n3)cc2F)cc1	< 50
CN(C)C(=O)c1ccc(NC(=O)Nc2ccc(-c3nc(N4CCOCC4)c4ncc(-c5cccnc5F)cc4n3)cc2F)cc1	< 50
CN1CCN(C(=O)c2ccc(NC(=O)Nc3ccc(-c4nc(N5CCOCC5)c5cc(F)c(-c6cccnc6)cc5n4)cc3)cc2)CC1	< 50
CN(C)C(=O)c1ccc(NC(=O)Nc2ccc(-c3nc(N4CCOCC4)c4ccc(-c5cccc(S(C)(=O)=O)c5)cc4n3)cc2F)cc1	< 50
Cc1ccc(-c2ccc3c(N4CCOCC4)nc(-c4ccc(NC(=O)Nc5ccc(C(=O)NCCN(C)C)cc5)cc4)nc3c2)o1	50 to 200
CN(C)C(=O)c1ccc(NC(=O)Nc2ccc(-c3nc(N4CCOCC4)c4ccc(-c5cccc(S(C)(=O)=O)c5)cc4n3)c(F)c2)cc1	< 50
CNC(=O)c1ccc(NC(=O)Nc2ccc(-c3nc(N4CCOCC4)c4ccc(-c5cncnc5)cc4n3)cc2F)cc1	50 to 200
Cc1noc(C)c1-c1cnc2c(N3CCOCC3)nc(-c3ccc(NC(=O)Nc4ccc(C(=O)N(C)C)cc4)cc3)nc2c1	< 50
Cc1ncccc1-c1ccc2c(N3CCOCC3)nc(-c3ccc(NC(=O)Nc4ccc(C(=O)N(C)C)cc4F)cc3)nc2c1	< 50
CN(C)C(=O)c1ccc(NC(=O)Nc2ccc(-c3nc(N4CCOCC4)c4ccc(-c5cccnc5F)cc4n3)cc2)cc1F	50 to 200
CN(C)C(=O)c1ccc(NC(=O)Nc2ccc(-c3nc(N4CCOCC4)c4ncc(-c5cccnc5F)cc4n3)cc2)c(F)c1	< 50
CN(C)C(=O)c1ccc(NC(=O)Nc2ccc(-c3nc(N4CCOCC4)c4ncc(-c5cnn(C)c5)cc4n3)cc2F)cn1	< 50
Cc1nn(C)c(C)c1-c1ccc2c(N3CCOCC3)nc(-c3ccc(NC(=O)Nc4ccc(C(=O)N(C)C)cc4)cc3)nc2c1	< 50
Cc1ccc(-c2ccc3c(N4CCOCC4)nc(-c4ccc(NC(=O)Nc5ccc(C(=O)N6CC[C@H](N(C)C)C6)cc5)cc4)nc3c2)o1	50 to 200
CN(C)C(=O)c1ccc(NC(=O)Nc2ccc(-c3nc(N4CCOCC4)c4ccc(-c5ccco5)cc4n3)cn2)cc1	< 50
CN(C)C(=O)c1ccc(NC(=O)Nc2ccc(-c3nc(N4CCOCC4)c4ncc(-c5cnn(C)c5)cc4n3)c(F)c2)cc1	< 50
CN(C)C(=O)c1ccc(NC(=O)Nc2ccc(-c3nc(N4CCOCC4)c4ncc(-c5cnc(N)nc5)cc4n3)cc2F)cc1	< 50
CN(C)C(=O)c1ccc(NC(=O)Nc2ccc(-c3nc(N4CCOCC4)c4ncc(-c5cccnc5F)cc4n3)cc2)cc1F	< 50
CN(C)C(=O)c1ccc(NC(=O)Nc2ccc(-c3nc(N4CCOCC4)c4cc(F)c(-c5cncnc5)cc4n3)cc2)cc1	< 50
CN(C)C(=O)c1ccc(NC(=O)Nc2ccc(-c3nc(N4CCOCC4)c4cc(F)c(-c5cncnc5)cc4n3)cn2)cc1	< 50
COc1ccncc1-c1ccc2c(N3CCOCC3)nc(-c3ccc(NC(=O)Nc4ccc(C(=O)N(C)C)cc4)cc3)nc2c1	< 50

SMILES	IC50 [nM]
CN(C)C(=O)c1ccc(NC(=O)Nc2ccc(-c3nc(N4CCOCC4)c4ccc(-c5cccnc5)cc4n3)cc2)cc1F	< 50
CN(C)C(=O)c1ccc(NC(=O)Nc2ccc(-c3nc(N4CCOCC4)c4ccc(-c5cnn(C)c5)cc4n3)cn2)c(F)c1	< 50
CN(C)C(=O)c1ccc(NC(=O)Nc2ccc(-c3nc(N4CCOCC4)c4ccc(-c5cnn(C)c5)cc4n3)cc2)cc1	< 50
CN(C)[C@@H]1CCN(C(=O)c2ccc(NC(=O)Nc3ccc(-c4nc(N5CCOCC5)c5ncc(-c6cnn(C)c6)cc5n4)cc3F)cc2)C1	< 50
CN(C)C(=O)c1ccc(NC(=O)Nc2ccc(-c3nc(N4CCOCC4)c4ccc(-c5cccnc5)cc4n3)cc2F)cc1	< 50
CN(C)C(=O)c1ccc(NC(=O)Nc2ccc(-c3nc(N4CCOCC4)c4ccc(-c5cccnc5F)cc4n3)c(F)c2)cc1	< 50
CN(C)C(=O)c1ccc(NC(=O)Nc2ccc(-c3nc(N4CCOCC4)c4ccc(-c5cccc(S(C)(=O)=O)c5)cc4n3)cc2)cc1	< 50
CN(C)C(=O)c1ccc(NC(=O)Nc2cc(F)c(-c3nc(N4CCOCC4)c4ccc(-c5cncnc5)cc4n3)cc2F)cc1	50 to 200
CC(=O)Nc1cccc(-c2ccc3c(N4CCOCC4)nc(-c4ccc(NC(=O)Nc5ccc(C(=O)N(C)C)cc5)cc4)nc3c2)c1	< 50
COc1ccc(-c2ccc3c(N4CCOCC4)nc(-c4ccc(NC(=O)Nc5ccc(C(=O)N(C)C)cc5F)cc4)nc3c2)cn1	< 50
CN(C)C(=O)c1ccc(NC(=O)Nc2ccc(-c3nc(N4CCOCC4)c4ccc(CO)cc4n3)cc2)cc1	< 50
Cc1ccncc1-c1ccc2c(N3CCOCC3)nc(-c3ccc(NC(=O)Nc4ccc(C(=O)N(C)C)cc4)c(F)c3)nc2c1	< 50
CN(C)[C@H]1CCN(C(=O)c2ccc(NC(=O)Nc3ccc(-c4nc(N5CCOCC5)c5ncc(-c6cnn(C)c6)cc5n4)cc3F)cc2)C1	< 50
COc1ncc(-c2ccc3c(N4CCOCC4)nc(-c4ccc(NC(=O)Nc5ccc(C(=O)N(C)C)c(F)c5)cc4)nc3c2)cn1	< 50
CN(C)C(=O)c1ccc(NC(=O)Nc2ccc(-c3nc(N4CCOCC4)c4ccc(C(C)(C)O)cc4n3)cc2)cc1	< 50
CN(C)C1CCN(C(=O)c2ccc(NC(=O)Nc3ccc(-c4nc(N5CCOCC5)c5ccc(C(C)(C)O)cc5n4)cc3)cc2)CC1	< 50
Cc1ccncc1-c1ccc2c(N3CCOCC3)nc(-c3ccc(NC(=O)Nc4ccc(C(=O)N(C)C)cc4)cc3)nc2c1	< 50
CN(C)C(=O)c1ccc(NC(=O)Nc2ccc(-c3nc(N4CCOCC4)c4cc(F)c(-c5cccnc5)cc4n3)cc2)c(F)c1	< 50
CN(C)C(=O)c1ccc(NC(=O)Nc2ccc(-c3nc(N4CCOCC4)c4ncc(-c5cnc(N)nc5)cc4n3)cc2)cc1	< 50
CN(C)C(=O)c1ccc(NC(=O)Nc2ccc(-c3nc(N4CCOCC4)c4ccc(-c5cnn(C)c5)cc4n3)c(F)c2)cc1	50 to 200
CN(C)C(=O)c1ccc(NC(=O)Nc2ccc(-c3nc(N4CCOCC4)c4cc(F)c(-c5cccnc5F)cc4n3)cc2)cc1	< 50
CN(C)C(=O)c1ccc(NC(=O)Nc2ccc(-c3nc(N4CCOCC4)c4cccc(-c5cccc(O)c5)c4n3)cc2)cc1	50 to 200
CN(C)C(=O)c1ccc(NC(=O)Nc2ccc(-c3nc(N4CCOCC4)c4ccc(-c5cncnc5)cc4n3)c(F)c2F)cc1	50 to 200
Cc1ccc(-c2ccc3c(N4CCOCC4)nc(-c4ccc(NC(=O)Nc5ccc(C(=O)N(C)C)cc5)cc4)nc3c2)s1	50 to 200
CN(C)C(=O)c1ccc(NC(=O)Nc2ccc(-c3nc(N4CCOCC4)c4ncc(-c5cnc(N(C)C)nc5)cc4n3)cc2)cc1	< 50
CC(=O)Nc1ccc(NC(=O)Nc2ccc(-c3nc(N4CCOCC4)c4ncc(-c5cccnc5F)cc4n3)cc2)cc1	< 50
